# Test results taken from patent publication US20220242861A1, “IMIDAZOPYRIDINYL COMPOUNDS AND USE THEREOF FOR TREATMENT OF PROLIFERATIVE DISORDERS” (1ST Biotherapeutics, Inc., priority 2019, published 2022).
# What was measured:
# [1] = biological target: T1, recombinant human c-Kit (D816V) (Homo sapiens, UniProt P10721, D816V); test: c-Kit (D816V) Kinase Assay (ADP-Glo); format: biochemical; conditions: In vitro kinase activity
# T1 construct: purchased Signalchem
# Procedure: (§1) ADP-Glo assay kit was purchased from Promega. Magnesium chloride (MgCl2), ethylene glycol-bis(β-aminoethyl ether)-N,N,N′,N′-tetraacetic acid (EGTA), bovine serum albumin (BSA), 1,4-dithiothreitol (DTT) and dimethyl sulfoxide (DMSO) were purchased from Sigma-Aldrich. HEPES buffer was purchased from Gibco. c-Kit (D816V) kinase and poly (4:1 Glu, Tyr) peptide were purchased from Signalchem.
# (§2) c-Kit (D816V) kinase activity was measured by Promega's ADP-GIoTM Assay. In this assay, 2.5ng of recombinant human c-Kit (D816V) is incubated with 5 μL of compounds (0.5% DMSO), 5 μL of Poly (4:1 Glu, Tyr) peptide (50 ng/μl) and 5 μL of ATP (15 μM) in buffer (50 mM HEPES, pH7.5; 10 mM MgCl2; 1 mM EGTA; 0.05% BSA; 50 μM DTT). The assay was started by incubating the reaction mixture in a 96-well plate at 30° C. for 120-min. After the incubation, 25 μL ADP-Glo reagent was added and the reaction was incubated at room temperature for 40-min to stop the reaction and degrade residual ATP. The ADP product was then converted to ATP by adding 50 μL per well of detection reagent. Luminescence was detected after 30-min room temperature incubation with the Molecular device I3X plate reader. The IC50 values were calculated from a series of percent inhibition values determined at a range of inhibitor concentration using software routines as implemented in the GraphPad Prism 8 software and Sigma Plot 13.0.
# recombinant human c-Kit = biological target: T2, recombinant human c-Kit (Homo sapiens, UniProt P10721); test: c-Kit Kinase Assay (ADP-Glo); format: biochemical; conditions: In vitro kinase activity
# T2 construct: purchased Signalchem
# Procedure: as §1, with “glycol-bis([…]” for “glycol-bis(β-aminoethyl”, “(EGTA), manganese (II) chloride (MnCl2),” for “(EGTA),”, “c-Kit” for “c-Kit (D816V)”
# as §2, with “c-Kit” for “c-Kit (D816V)”, “ADP-Glo™” for “ADP-GIoTM”, “100ng” for “2.5ng”, “(50” for “(15”, “50μM DTT; 2mM MnCl2).” for “50 μM DTT).”
# recombinant human PDGFRα = biological target: T3, recombinant human PDGFRα (Homo sapiens, UniProt P16234); test: PDGFRα Kinase Assay (ADP-Glo); format: biochemical; conditions: In vitro kinase activity, read-out: PDGFRa IC50
# T3 construct: purchased Signalchem
# Procedure: as §1, with “glycol-bis(p-aminoethyl” for “glycol-bis(β-aminoethyl”, “PDGFRα Kinase” for “c-Kit (D816V) kinase”
# (§3) PDGFRα kinase activity was measured by Promega's ADP-Glo™ Assay. In this assay, 40ng of recombinant human PDGFRα is incubated with 5 μL of compounds (0.5% DMSO), 5 μL of Poly (4:1 Glu, Tyr) peptide (100 ng/μl) and 5 μL of ATP (25 pM) in buffer (50 mM HEPES, pH7.5; 10 mM MgCl2; 1 mM EGTA; 0.05% BSA; 50 μM DTT). The assay was started by incubating the reaction mixture in a 96-well plate at 30° C. for 60-min. After the incubation, 25 μL ADP-Glo reagent was added and the reaction was incubated at room temperature for 40-min to stop the reaction and degrade residual ATP. The ADP product was then converted to ATP by adding 50 μL per well of detection reagent. Luminescence was detected after 30-min room temperature incubation with the Molecular device I3X plate reader. The IC50 values were calculated from a series of percent inhibition values determined at a range of inhibitor concentration using software routines as implemented in the GraphPad Prism 8 software and Sigma Plot 13.0.
# [2] = biological target: T4, recombinant human PDGFRα (D842V) (Homo sapiens, UniProt P16234, D842V); test: PDGFRα (D842V) Kinase Assay (ADP-Glo); format: biochemical; conditions: In vitro kinase activity
# T4 construct: purchased Signalchem
# Procedure: as §1, with “glycol-bis(p-aminoethyl ether)-N, N, N′, N′-tetraacetic” for “glycol-bis(β-aminoethyl ether)-N,N,N′,N′-tetraacetic”, “PDGFRα (D842V) Kinase” for “c-Kit (D816V) kinase”
# as §3, with “PDGFRα (D842V)” for “PDGFRα”, “10 ng” for “40ng”, “([…]” for “(25”, “[…]” for “50 μM”, “120-min.” for “60-min.”
# [3] = system: K562 human leukemia cell line; test: K562 Cell Proliferation Assay (MTS); format: cell-based; conditions: K562 cells, 48 hr incubation, MTS cell viability
# Procedure: K562 human leukemia cell line purchased from Korean cell line bank (KCLB) and were cultured in Roswell Park Memorial Institute (RPMI) 1640 Medium supplemented with 10% fetal bovine serum (FBS) and 1% penicillin-streptomycin in a humidified incubator in an atmosphere of 5% CO2 at 37° C. Cells were seeded in 96-well plates at a density of 2×10^3 cells/well in 100 […] media. Compounds were diluted as two times concentration in 100 μl of media and added to each well. Compounds were 5-fold serially diluted for 6 points and treated from 5 μM to 1.6 nM in K562 cells. After 48 hr incubation, Compound treated cells were analyzed for anti-proliferation assay. Cell viability was investigated using the Cell Titer 96 Aqueous One Solution Reagent. Briefly, 200 μl of media were supplemented with 40 μl of MTS solution, incubated for 4hr, and then the absorbance was recorded at 490 nm with a 96-well plate reader. G150 values were calculated from a series of percent of cell viability at a range of compound concentration. GraphPad Prism 8 software or SigmaPlot 13.0 was used to generate G150 values.
# T4 sequence (P16234 24-1089 D842V): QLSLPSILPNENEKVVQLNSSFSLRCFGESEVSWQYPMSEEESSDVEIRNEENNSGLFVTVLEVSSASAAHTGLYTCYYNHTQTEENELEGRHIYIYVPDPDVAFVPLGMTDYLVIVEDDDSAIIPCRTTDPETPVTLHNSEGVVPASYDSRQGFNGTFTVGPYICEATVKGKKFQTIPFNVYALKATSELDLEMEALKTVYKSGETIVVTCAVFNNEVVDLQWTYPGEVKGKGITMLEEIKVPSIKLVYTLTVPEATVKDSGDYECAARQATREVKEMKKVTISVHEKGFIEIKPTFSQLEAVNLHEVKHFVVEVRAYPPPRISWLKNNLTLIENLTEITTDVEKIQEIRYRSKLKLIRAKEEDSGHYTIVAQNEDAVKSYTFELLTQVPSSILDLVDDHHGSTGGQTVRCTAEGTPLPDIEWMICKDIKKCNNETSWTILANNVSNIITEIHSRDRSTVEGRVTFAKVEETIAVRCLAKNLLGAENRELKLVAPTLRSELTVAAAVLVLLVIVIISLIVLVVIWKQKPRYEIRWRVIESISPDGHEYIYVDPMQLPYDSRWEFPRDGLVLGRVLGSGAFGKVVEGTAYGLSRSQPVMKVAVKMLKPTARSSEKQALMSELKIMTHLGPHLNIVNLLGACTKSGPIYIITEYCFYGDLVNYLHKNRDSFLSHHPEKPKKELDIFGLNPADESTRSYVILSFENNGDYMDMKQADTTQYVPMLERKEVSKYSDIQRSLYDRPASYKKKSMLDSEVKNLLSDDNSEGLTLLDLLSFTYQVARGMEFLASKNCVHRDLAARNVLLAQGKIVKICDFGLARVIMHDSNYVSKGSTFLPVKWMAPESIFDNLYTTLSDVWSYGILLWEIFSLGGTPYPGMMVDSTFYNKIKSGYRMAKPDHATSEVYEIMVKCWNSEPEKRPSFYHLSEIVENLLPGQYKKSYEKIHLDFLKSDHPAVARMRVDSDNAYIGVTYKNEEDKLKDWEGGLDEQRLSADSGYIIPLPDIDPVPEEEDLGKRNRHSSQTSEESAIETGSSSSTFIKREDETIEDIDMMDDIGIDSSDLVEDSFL
# T1 sequence (P10721 26-976 D816V): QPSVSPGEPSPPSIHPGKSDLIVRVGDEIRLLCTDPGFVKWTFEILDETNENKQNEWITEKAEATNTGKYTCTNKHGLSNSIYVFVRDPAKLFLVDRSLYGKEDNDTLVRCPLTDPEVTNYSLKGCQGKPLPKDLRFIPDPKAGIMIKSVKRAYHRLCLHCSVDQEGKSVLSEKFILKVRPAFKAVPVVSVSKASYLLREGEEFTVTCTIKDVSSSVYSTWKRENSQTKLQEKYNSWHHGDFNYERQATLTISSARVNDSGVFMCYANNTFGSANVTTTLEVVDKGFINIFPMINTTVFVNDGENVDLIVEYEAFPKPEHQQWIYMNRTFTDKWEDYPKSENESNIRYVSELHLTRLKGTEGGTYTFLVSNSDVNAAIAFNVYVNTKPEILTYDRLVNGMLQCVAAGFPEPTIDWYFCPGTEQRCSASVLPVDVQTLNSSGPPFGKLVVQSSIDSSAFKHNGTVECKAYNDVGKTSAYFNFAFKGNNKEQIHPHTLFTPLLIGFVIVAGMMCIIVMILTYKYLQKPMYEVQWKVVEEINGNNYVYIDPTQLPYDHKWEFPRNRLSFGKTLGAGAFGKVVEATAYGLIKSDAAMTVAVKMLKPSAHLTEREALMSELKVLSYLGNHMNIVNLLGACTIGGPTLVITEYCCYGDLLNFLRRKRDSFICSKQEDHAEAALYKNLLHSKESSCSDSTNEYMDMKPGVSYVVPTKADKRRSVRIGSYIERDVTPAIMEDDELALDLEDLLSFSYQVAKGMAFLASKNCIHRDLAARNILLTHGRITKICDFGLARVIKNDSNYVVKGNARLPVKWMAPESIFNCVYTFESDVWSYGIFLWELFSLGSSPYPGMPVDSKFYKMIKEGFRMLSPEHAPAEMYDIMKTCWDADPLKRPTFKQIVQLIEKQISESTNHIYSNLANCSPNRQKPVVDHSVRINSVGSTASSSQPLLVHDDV
# T3 sequence (P16234 24-1089): as the sequence (P16234 24-1089 D842V) above, with V819D counted along it
# T2 sequence (P10721 26-976): as the sequence (P10721 26-976 D816V) above, with V791D counted along it
IC50 [1],IC50 (recombinant human c-Kit),IC50 (recombinant human PDGFRα),IC50 [2],IC50 [3],SMILES
> 1 µM,> 1 µM,0.101 to 1 µM,0.101 to 1 µM,–,COCCOCc1c(F)cccc1-c1ccc2nc(NC(=O)[C@@H]3C[C@@H]3F)cn2c1 [Example 82]
0.101 to 1 µM,> 1 µM,0.101 to 1 µM,0.01 to 0.1 µM,0.101 to 1 µM,"O=C(Nc1cn2cc(-c3cccc(F)c3CO)ccc2n1)[C@@H]1C[C@@H]1F [Example 57, (1 S,2 S)-2-fluoro-N-(6-(3-fluoro-2-(hydroxymethyl)phenyl)imidazo[1,2-a]pyridin-2-yl)cyclopropane-1-carboxamide]"
> 1 µM,> 1 µM,> 1 µM,0.101 to 1 µM,–,"COCc1c(F)cccc1-c1ccc2nc(NC(=O)[C@@H]3C[C@@H]3F)cn2c1 [Example 64, (1 S,2 S)-2-fluoro-N-(6-(3-fluoro-2-(methoxymethyl)phenyl)imidazo[1,2-a]pyridin-2-yl)cyclopropanecarboxamide]"
> 1 µM,> 1 µM,0.101 to 1 µM,0.101 to 1 µM,–,"O=C(Nc1cn2cc(-c3cccc(F)c3COCCO)ccc2n1)[C@@H]1C[C@@H]1F [Example 83, (1 S,2 S)-2-fluoro-N-(6-(3-fluoro-2-((2-hydroxyethoxy)methyl)phenyl)imidazo[1,2-a]pyridin-2-yl)cyclopropanecarboxamide]"

# The remaining lines, values behind:
SMILES,IC50 [1],IC50 (recombinant human c-Kit),IC50 (recombinant human PDGFRα),IC50 [2],IC50 [3]
"CC(=O)c1c(F)cccc1-c1ccc2nc(NC(=O)[C@@H]3C[C@@H]3F)cn2c1 [Example 68, (1 S,2 S)-N-(6-(2-acetyl-3-fluorophenyl)imidazo[1,2-a]pyridin-2-yl)-2-fluorocyclopropanecarboxamide]",> 1 µM,> 1 µM,> 1 µM,> 1 µM,–
"NCc1c(F)cccc1-c1ccc2nc(NC(=O)[C@@H]3C[C@@H]3F)cn2c1 [Example 74, (1 S,2 S)-N-(6-(2-(aminomethyl)-3-fluorophenyl)imidazo[1,2-a]pyridin-2-yl)-2-fluorocyclopropanecarboxamide]",> 1 µM,> 1 µM,> 1 µM,> 1 µM,–
"CNCc1c(F)cccc1-c1ccc2nc(NC(=O)[C@@H]3C[C@@H]3F)cn2c1 [Example 80, (1 S,2 S)-2-fluoro-N-(6-(3-fluoro-2-((methylamino)methyl)phenyl)imidazo[1,2-a]pyridin-2-yl)cyclopropanecarboxamide]",> 1 µM,> 1 µM,> 1 µM,> 1 µM,–
